Measurements: article PMC6708471 (Cell calcium, 2019)

Experiments:
calmodulin (CaM) [1] = biological target: T1, calmodulin (CaM) (Homo sapiens, UniProt P0DP25); experiment: […]-1H HSQC NMR titration; format: binding
calmodulin (CaM) [2] = biological target: T1, calmodulin (CaM); experiment: X-ray crystal structure; format: biochemical

Compound | 15N-1H HSQC NMR titration (intermediate exchange, modest affinity) (calmodulin (CaM) [1]) | EC50 (calmodulin (CaM) [2]) [µM]
COc1ccc(S(=O)(=O)Nc2ccccc2CN(C)C/C=C/c2ccc(Cl)cc2)cc1 [KN92] | We found that KN92 also affects the CaM NMR spectrum as many of the cross peaks disappear. | –
COc1ccc(S(=O)(=O)N(CCO)c2ccccc2CN(C)C/C=C/c2ccc(Cl)cc2)cc1 [KN93] | – | 5.1 ± 1.4
